Converted amounts (≈) assume the structure as drawn.
Tested on: Staphylococcus aureus
Test: Antibacterial activity against Staphylococcus aureus ATCC 25923 assessed as bacterial growth inhibition by agar diffusion assay
Assay type: functional

Row | SMILES | MIC
1 | CC(C)(C)n1cc(C(=O)O)c(=O)c2cc(F)c(-c3ccc(F)cc3F)cc21 | 2 µg/mL (≈ 5.33 µM)
2 | O=C(O)c1cn(C2CC2)c2cc(Br)c(F)cc2c1=O | 4 µg/mL (≈ 12.3 µM)
3 | CCOC(=O)c1cn2c3c(cccc3c1=O)OCC2CC (stereo unspecified) | > 256 µg/mL
4 | CC(C)(C)n1cc(C(=O)O)c(=O)c2cc(F)c(Sc3ccccc3)cc21 | 2 µg/mL (≈ 5.38 µM)
5 | COc1ccc(-c2cc3c(cc2F)c(=O)c(C(=O)O)cn3C(C)(C)C)cc1 | 0.25 µg/mL (≈ 0.677 µM)
6 | CC(C)(C)n1cc(C(=O)O)c(=O)c2cc(F)c(-c3cccnc3)cc21 | ≤ 0.12 µg/mL
7 | CC(C)(C)n1cc(C(=O)O)c(=O)c2cc(F)c(Br)cc21 | 8 µg/mL (≈ 23.4 µM)

Tested on: Escherichia coli
Test: Antibacterial activity against Escherichia coli CCUG assessed as bacterial growth inhibition by agar diffusion assay
Assay type: functional

Row | SMILES | MIC
8 | CC(C)(C)n1cc(C(=O)O)c(=O)c2cc(F)c(-c3ccc(F)cc3F)cc21 | 16 µg/mL (≈ 42.6 µM)
9 | O=C(O)c1cn(C2CC2)c2cc(Br)c(F)cc2c1=O | 0.25 µg/mL (≈ 0.767 µM)
10 | CCOC(=O)c1cn2c3c(cccc3c1=O)OCC2CC (stereo unspecified) | > 256 µg/mL
11 | CC(C)(C)n1cc(C(=O)O)c(=O)c2cc(F)c(Sc3ccccc3)cc21 | 16 µg/mL (≈ 43.1 µM)
12 | COc1ccc(-c2cc3c(cc2F)c(=O)c(C(=O)O)cn3C(C)(C)C)cc1 | > 256 µg/mL
13 | CC(C)(C)n1cc(C(=O)O)c(=O)c2cc(F)c(-c3cccnc3)cc21 | 2 µg/mL (≈ 5.88 µM)
14 | CC(C)(C)n1cc(C(=O)O)c(=O)c2cc(F)c(Br)cc21 | 8 µg/mL (≈ 23.4 µM)

Tested on: Klebsiella pneumoniae
Test: Antibacterial activity against Klebsiella pneumoniae ATCC 13833 assessed as bacterial growth inhibition by agar diffusion assay
Assay type: functional

Row | SMILES | MIC
15 | CC(C)(C)n1cc(C(=O)O)c(=O)c2cc(F)c(-c3ccc(F)cc3F)cc21 | 4 µg/mL (≈ 10.7 µM)
16 | O=C(O)c1cn(C2CC2)c2cc(Br)c(F)cc2c1=O | ≤ 0.12 µg/mL
17 | CCOC(=O)c1cn2c3c(cccc3c1=O)OCC2CC (stereo unspecified) | 128 µg/mL (≈ 446 µM)
18 | CC(C)(C)n1cc(C(=O)O)c(=O)c2cc(F)c(Sc3ccccc3)cc21 | 8 µg/mL (≈ 21.5 µM)
19 | COc1ccc(-c2cc3c(cc2F)c(=O)c(C(=O)O)cn3C(C)(C)C)cc1 | 16 µg/mL (≈ 43.3 µM)
20 | CC(C)(C)n1cc(C(=O)O)c(=O)c2cc(F)c(-c3cccnc3)cc21 | 0.25 µg/mL (≈ 0.735 µM)
21 | CC(C)(C)n1cc(C(=O)O)c(=O)c2cc(F)c(Br)cc21 | 1 µg/mL (≈ 2.92 µM)

Tested on: Pseudomonas aeruginosa
Test: Antibacterial activity against multidrug-resistant Pseudomonas aeruginosa VR-143/97 clinical isolate assessed as bacterial growth inhibition by agar diffusion assay
Assay type: functional

Row | SMILES | MIC
22 | CC(C)(C)n1cc(C(=O)O)c(=O)c2cc(F)c(-c3ccc(F)cc3F)cc21 | > 256 µg/mL
23 | O=C(O)c1cn(C2CC2)c2cc(Br)c(F)cc2c1=O | 256 µg/mL (≈ 785 µM)
24 | CCOC(=O)c1cn2c3c(cccc3c1=O)OCC2CC (stereo unspecified) | > 256 µg/mL
25 | CC(C)(C)n1cc(C(=O)O)c(=O)c2cc(F)c(Sc3ccccc3)cc21 | 128 µg/mL (≈ 345 µM)
26 | COc1ccc(-c2cc3c(cc2F)c(=O)c(C(=O)O)cn3C(C)(C)C)cc1 | > 256 µg/mL
27 | CC(C)(C)n1cc(C(=O)O)c(=O)c2cc(F)c(-c3cccnc3)cc21 | 64 µg/mL (≈ 188 µM)
28 | CC(C)(C)n1cc(C(=O)O)c(=O)c2cc(F)c(Br)cc21 | > 256 µg/mL

Tested on: Acinetobacter baumannii
Test: Antibacterial activity against Acinetobacter baumannii ATCC 17978 assessed as bacterial growth inhibition by agar diffusion assay
Assay type: functional

Row | SMILES | MIC
29 | CC(C)(C)n1cc(C(=O)O)c(=O)c2cc(F)c(-c3ccc(F)cc3F)cc21 | 8 µg/mL (≈ 21.3 µM)
30 | O=C(O)c1cn(C2CC2)c2cc(Br)c(F)cc2c1=O | 0.5 µg/mL (≈ 1.53 µM)
31 | CCOC(=O)c1cn2c3c(cccc3c1=O)OCC2CC (stereo unspecified) | 256 µg/mL (≈ 891 µM)
32 | CC(C)(C)n1cc(C(=O)O)c(=O)c2cc(F)c(Sc3ccccc3)cc21 | 32 µg/mL (≈ 86.2 µM)
33 | COc1ccc(-c2cc3c(cc2F)c(=O)c(C(=O)O)cn3C(C)(C)C)cc1 | 16 µg/mL (≈ 43.3 µM)
34 | CC(C)(C)n1cc(C(=O)O)c(=O)c2cc(F)c(-c3cccnc3)cc21 | 0.5 µg/mL (≈ 1.47 µM)
35 | CC(C)(C)n1cc(C(=O)O)c(=O)c2cc(F)c(Br)cc21 | 8 µg/mL (≈ 23.4 µM)

Tested on: Streptococcus pyogenes
Test: Antibacterial activity against Streptococcus pyogenes ATCC 12344 assessed as bacterial growth inhibition by agar diffusion assay
Assay type: functional

Row | SMILES | MIC
36 | CC(C)(C)n1cc(C(=O)O)c(=O)c2cc(F)c(-c3ccc(F)cc3F)cc21 | 1 µg/mL (≈ 2.66 µM)
37 | O=C(O)c1cn(C2CC2)c2cc(Br)c(F)cc2c1=O | 4 µg/mL (≈ 12.3 µM)
38 | CCOC(=O)c1cn2c3c(cccc3c1=O)OCC2CC (stereo unspecified) | > 256 µg/mL
39 | CC(C)(C)n1cc(C(=O)O)c(=O)c2cc(F)c(Sc3ccccc3)cc21 | 1 µg/mL (≈ 2.69 µM)
40 | COc1ccc(-c2cc3c(cc2F)c(=O)c(C(=O)O)cn3C(C)(C)C)cc1 | ≤ 0.12 µg/mL
41 | CC(C)(C)n1cc(C(=O)O)c(=O)c2cc(F)c(-c3cccnc3)cc21 | ≤ 0.12 µg/mL
42 | CC(C)(C)n1cc(C(=O)O)c(=O)c2cc(F)c(Br)cc21 | 8 µg/mL (≈ 23.4 µM)

Tested on: Enterococcus faecalis
Test: Antibacterial activity against Enterococcus faecalis ATCC 29212 assessed as bacterial growth inhibition by agar diffusion assay
Assay type: functional

Row | SMILES | MIC
43 | CC(C)(C)n1cc(C(=O)O)c(=O)c2cc(F)c(-c3ccc(F)cc3F)cc21 | 2 µg/mL (≈ 5.33 µM)
44 | O=C(O)c1cn(C2CC2)c2cc(Br)c(F)cc2c1=O | 4 µg/mL (≈ 12.3 µM)
45 | CCOC(=O)c1cn2c3c(cccc3c1=O)OCC2CC (stereo unspecified) | 256 µg/mL (≈ 891 µM)
46 | CC(C)(C)n1cc(C(=O)O)c(=O)c2cc(F)c(Sc3ccccc3)cc21 | 2 µg/mL (≈ 5.38 µM)
47 | COc1ccc(-c2cc3c(cc2F)c(=O)c(C(=O)O)cn3C(C)(C)C)cc1 | 0.5 µg/mL (≈ 1.35 µM)
48 | CC(C)(C)n1cc(C(=O)O)c(=O)c2cc(F)c(-c3cccnc3)cc21 | 0.5 µg/mL (≈ 1.47 µM)
49 | CC(C)(C)n1cc(C(=O)O)c(=O)c2cc(F)c(Br)cc21 | 2 µg/mL (≈ 5.85 µM)

Tested on: Pseudomonas aeruginosa
Test: Antibacterial activity against Pseudomonas aeruginosa ATCC 27853 assessed as bacterial growth inhibition by agar diffusion assay
Assay type: functional

Row | SMILES | MIC
50 | CC(C)(C)n1cc(C(=O)O)c(=O)c2cc(F)c(-c3ccc(F)cc3F)cc21 | 64 µg/mL (≈ 171 µM)
51 | O=C(O)c1cn(C2CC2)c2cc(Br)c(F)cc2c1=O | 8 µg/mL (≈ 24.5 µM)
52 | CCOC(=O)c1cn2c3c(cccc3c1=O)OCC2CC (stereo unspecified) | > 256 µg/mL
53 | CC(C)(C)n1cc(C(=O)O)c(=O)c2cc(F)c(Sc3ccccc3)cc21 | 256 µg/mL (≈ 689 µM)
54 | COc1ccc(-c2cc3c(cc2F)c(=O)c(C(=O)O)cn3C(C)(C)C)cc1 | > 256 µg/mL
55 | CC(C)(C)n1cc(C(=O)O)c(=O)c2cc(F)c(-c3cccnc3)cc21 | 4 µg/mL (≈ 11.8 µM)
56 | CC(C)(C)n1cc(C(=O)O)c(=O)c2cc(F)c(Br)cc21 | 32 µg/mL (≈ 93.5 µM)

Tested on: Enterobacter cloacae
Test: Antibacterial activity against multidrug-resistant Enterobacter cloacae VA 417/02 clinical isolate assessed as bacterial growth inhibition by agar diffusion assay
Assay type: functional

Row | SMILES | MIC
57 | CC(C)(C)n1cc(C(=O)O)c(=O)c2cc(F)c(-c3ccc(F)cc3F)cc21 | 4 µg/mL (≈ 10.7 µM)
58 | O=C(O)c1cn(C2CC2)c2cc(Br)c(F)cc2c1=O | 0.25 µg/mL (≈ 0.767 µM)
59 | CCOC(=O)c1cn2c3c(cccc3c1=O)OCC2CC (stereo unspecified) | > 256 µg/mL
60 | CC(C)(C)n1cc(C(=O)O)c(=O)c2cc(F)c(Sc3ccccc3)cc21 | 16 µg/mL (≈ 43.1 µM)
61 | COc1ccc(-c2cc3c(cc2F)c(=O)c(C(=O)O)cn3C(C)(C)C)cc1 | 128 µg/mL (≈ 347 µM)
62 | CC(C)(C)n1cc(C(=O)O)c(=O)c2cc(F)c(-c3cccnc3)cc21 | 0.5 µg/mL (≈ 1.47 µM)
63 | CC(C)(C)n1cc(C(=O)O)c(=O)c2cc(F)c(Br)cc21 | 2 µg/mL (≈ 5.85 µM)

Tested on: Bacillus spizizenii
Test: Antibacterial activity against Bacillus subtilis ATCC 6633 assessed as bacterial growth inhibition by agar diffusion assay
Assay type: functional

Row | SMILES | MIC
64 | CC(C)(C)n1cc(C(=O)O)c(=O)c2cc(F)c(-c3ccc(F)cc3F)cc21 | ≤ 0.12 µg/mL
65 | O=C(O)c1cn(C2CC2)c2cc(Br)c(F)cc2c1=O | ≤ 0.12 µg/mL
66 | CCOC(=O)c1cn2c3c(cccc3c1=O)OCC2CC (stereo unspecified) | 128 µg/mL (≈ 446 µM)
67 | CC(C)(C)n1cc(C(=O)O)c(=O)c2cc(F)c(Sc3ccccc3)cc21 | ≤ 0.12 µg/mL
68 | COc1ccc(-c2cc3c(cc2F)c(=O)c(C(=O)O)cn3C(C)(C)C)cc1 | ≤ 0.12 µg/mL
69 | CC(C)(C)n1cc(C(=O)O)c(=O)c2cc(F)c(-c3cccnc3)cc21 | ≤ 0.12 µg/mL
70 | CC(C)(C)n1cc(C(=O)O)c(=O)c2cc(F)c(Br)cc21 | ≤ 0.12 µg/mL

Tested on: Escherichia coli
Test: Antibacterial activity against multidrug-resistant Escherichia coli Z25 clinical isolate assessed as bacterial growth inhibition by agar diffusion assay
Assay type: functional

Row | SMILES | MIC
71 | CC(C)(C)n1cc(C(=O)O)c(=O)c2cc(F)c(-c3ccc(F)cc3F)cc21 | > 256 µg/mL
72 | O=C(O)c1cn(C2CC2)c2cc(Br)c(F)cc2c1=O | > 256 µg/mL
73 | CCOC(=O)c1cn2c3c(cccc3c1=O)OCC2CC (stereo unspecified) | > 256 µg/mL
74 | CC(C)(C)n1cc(C(=O)O)c(=O)c2cc(F)c(Sc3ccccc3)cc21 | > 256 µg/mL
75 | COc1ccc(-c2cc3c(cc2F)c(=O)c(C(=O)O)cn3C(C)(C)C)cc1 | > 256 µg/mL
76 | CC(C)(C)n1cc(C(=O)O)c(=O)c2cc(F)c(-c3cccnc3)cc21 | 256 µg/mL (≈ 752 µM)
77 | CC(C)(C)n1cc(C(=O)O)c(=O)c2cc(F)c(Br)cc21 | > 256 µg/mL

Tested on: Acinetobacter baumannii
Test: Antibacterial activity against Acinetobacter baumannii AC-54/97 clinical isolate assessed as bacterial growth inhibition by agar diffusion assay
Assay type: functional

Row | SMILES | MIC
78 | CC(C)(C)n1cc(C(=O)O)c(=O)c2cc(F)c(-c3ccc(F)cc3F)cc21 | > 256 µg/mL
79 | O=C(O)c1cn(C2CC2)c2cc(Br)c(F)cc2c1=O | 256 µg/mL (≈ 785 µM)
80 | CCOC(=O)c1cn2c3c(cccc3c1=O)OCC2CC (stereo unspecified) | > 256 µg/mL
81 | CC(C)(C)n1cc(C(=O)O)c(=O)c2cc(F)c(Sc3ccccc3)cc21 | > 256 µg/mL
82 | COc1ccc(-c2cc3c(cc2F)c(=O)c(C(=O)O)cn3C(C)(C)C)cc1 | > 256 µg/mL
83 | CC(C)(C)n1cc(C(=O)O)c(=O)c2cc(F)c(-c3cccnc3)cc21 | 64 µg/mL (≈ 188 µM)
84 | CC(C)(C)n1cc(C(=O)O)c(=O)c2cc(F)c(Br)cc21 | > 256 µg/mL

Tested on: Enterobacter cloacae
Test: Antibacterial activity against multidrug-resistant Enterobacter cloacae Z19 clinical isolate assessed as bacterial growth inhibition by agar diffusion assay
Assay type: functional

Row | SMILES | MIC
85 | CC(C)(C)n1cc(C(=O)O)c(=O)c2cc(F)c(-c3ccc(F)cc3F)cc21 | > 256 µg/mL
86 | O=C(O)c1cn(C2CC2)c2cc(Br)c(F)cc2c1=O | > 256 µg/mL
87 | CCOC(=O)c1cn2c3c(cccc3c1=O)OCC2CC (stereo unspecified) | > 256 µg/mL
88 | CC(C)(C)n1cc(C(=O)O)c(=O)c2cc(F)c(Sc3ccccc3)cc21 | 256 µg/mL (≈ 689 µM)
89 | COc1ccc(-c2cc3c(cc2F)c(=O)c(C(=O)O)cn3C(C)(C)C)cc1 | > 256 µg/mL
90 | CC(C)(C)n1cc(C(=O)O)c(=O)c2cc(F)c(-c3cccnc3)cc21 | 256 µg/mL (≈ 752 µM)
91 | CC(C)(C)n1cc(C(=O)O)c(=O)c2cc(F)c(Br)cc21 | > 256 µg/mL
